Experiments:
Format in all cases: in vivo
[1] = test system: Alopecurus myosuroides (ALOMY); test: Post-emergence herbicidal evaluation, black grass; details: rated 2 to 4 weeks after treatment
Outline: (§1)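 Emerged seedlings receive a water-diluted acetone formulation at about 0.03 to 0.4 kg per hectare per pot and are grown on in the greenhouse. Scoring after 2–4 weeks uses a 0 (untreated-like growth) to 9 (death) scale.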

[2] = test system: Ipomoea hederacea (IPOHE); test: Post-emergence herbicidal evaluation, morning glory; details: rated 2 to 4 weeks after treatment
Outline: as §1

[3] = test system: Abutilon theophrasti (ABUTH); test: Pre-emergence herbicidal evaluation, velvetleaf
Outline: (§2)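 Pre-emergence; seed/potting-soil mix sown on ~1 inch soil; spray aqueous acetone solution, ~0.0125–0.4 kg/ha equivalent; greenhouse, watered; visual rating at 2–4 wk.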

[4] = test system: Matricaria inodora (MATIN); test: Post-emergence herbicidal evaluation, mayweed; details: rated 2 to 4 weeks after treatment
Outline: as §1

Zea mays (ZEAMX) = test: Post-emergence herbicidal evaluation, maize; details: rated 2 to 4 weeks after treatment
Outline: as §1

Solanum nigrum (SOLNI) [5] = test: Post-emergence herbicidal evaluation, black nightshade; details: rated 2 to 4 weeks after treatment
Outline: as §1

Galium aparine (GALAP) [6] = test: Post-emergence herbicidal evaluation, cleaver; details: rated 2 to 4 weeks after treatment
Outline: as §1

[7] = test system: Ambrosia artemiisifolia (AMBEL); test: Post-emergence herbicidal evaluation, ragweed; details: rated 2 to 4 weeks after treatment
Outline: as §1

Lamium purpureum (LAMPU) [8] = test: Pre-emergence herbicidal evaluation, purple deadnettle
Outline: as §2

Solanum nigrum (SOLNI) [9] = test: Pre-emergence herbicidal evaluation, black nightshade
Outline: as §2

Setaria viridis (SETVI) [10] = test: Post-emergence herbicidal evaluation, green foxtail; details: rated 2 to 4 weeks after treatment
Outline: as §1

Glycine max (GLXMA) = test: Pre-emergence herbicidal evaluation, soyabeans
Outline: as §2

[11] = test system: Abutilon theophrasti (ABUTH); test: Post-emergence herbicidal evaluation, velvetleaf; details: rated 2 to 4 weeks after treatment
Outline: as §1

Setaria viridis (SETVI) [12] = test: Pre-emergence herbicidal evaluation, green foxtail
Outline: as §2

[13] = test system: Echinochloa grus galli (ECHCG); test: Post-emergence herbicidal evaluation, barnyard grass; details: rated 2 to 4 weeks after treatment
Procedure: [table] [table] […] These acetone solutions are diluted with water and the resulting formulations applied at dosage levels equivalent of about 0.03 to 0.4 kg per hectare of test compound per pot. After spraying the plants are placed on greenhouse benches and are cared for in the usual manner, commensurate with conventional greenhouse practices. From 2 to 4 weeks after treatment, the seedling plants are examined and rated according to the rating system provided above. A rating 0 indicates growth as untreated control, a rating 9 indicates death.

[14] = test system: Matricaria inodora (MATIN); test: Pre-emergence herbicidal evaluation, mayweed
Outline: as §2

[15] = test system: Triticum aestivum (TRZAW); test: Post-emergence herbicidal evaluation, winter wheat; details: rated 2 to 4 weeks after treatment
Outline: as §1

[16] = test system: Triticum aestivum (TRZAW); test: Pre-emergence herbicidal evaluation, winter wheat
Outline: as §2

Oryza sativum (ORYSA) [17] = test: Post-emergence herbicidal evaluation, rice; details: rated 2 to 4 weeks after treatment
Outline: as §1

Galium aparine (GALAP) [18] = test: Pre-emergence herbicidal evaluation, cleaver
Outline: as §2

Stellaria media (STEME) = test: Pre-emergence herbicidal evaluation, chickweed
Outline: as §2

Oryza sativum (ORYSA) [19] = test: Pre-emergence herbicidal evaluation, rice
Outline: as §2

Hordeum vulgare (HORVW) = test: Post-emergence herbicidal evaluation, winter barley; details: rated 2 to 4 weeks after treatment
Outline: as §1

Lamium purpureum (LAMPU) [20] = test: Post-emergence herbicidal evaluation, purple deadnettle; details: rated 2 to 4 weeks after treatment
Outline: as §1

[21] = test system: Alopecurus myosuroides (ALOMY); test: Pre-emergence herbicidal evaluation, black grass
Outline: as §2

[22] = test system: Ambrosia artemiisifolia (AMBEL); test: Pre-emergence herbicidal evaluation, ragweed
Outline: as §2

In the case of `Cc1cc(OC=CCC(F)(F)F)nc(Oc2cc(C(F)(F)F)nn2C)c1` [Example 2, 2-(1-Methyl-3-trifluoromethylpyrazol-5-yloxy)-4-methyl-6-(4,4,4-trifluorobut-1-enyloxy)pyridine], the ALOMY rating ([1]; dose 0.03 kg/ha) is reported as 2 (2 - Slight effect), the ALOMY rating ([1]; dose 0.1 kg/ha) is reported as 5 (5 - Definite injury) and the ALOMY rating ([1]; dose 0.4 kg/ha) is reported as 8 (8 - Approaching complete kill). The IPOHE rating ([2]; dose 0.03 kg/ha) was 8 (8 - Approaching complete kill), the IPOHE rating ([2]; dose 0.1 kg/ha) was 9 (9 - Complete kill) and the IPOHE rating ([2]; dose 0.4 kg/ha) was 9 (9 - Complete kill). For the same compound, the ABUTH rating ([3]; dose 0.013 kg/ha) was 1 (1 - Trace effect), the ABUTH rating ([3]; dose 0.025 kg/ha) was 4 (4 - Injury) and the ABUTH rating ([3]; dose 0.1 kg/ha) was 6 (6 - Herbicidal effect). The ABUTH rating ([3]; dose 0.4 kg/ha) was 9 (9 - Complete kill), the MATIN rating ([4]; dose 0.03 kg/ha) was 6 (6 - Herbicidal effect) and the MATIN rating ([4]; dose 0.1 kg/ha) was 8 (8 - Approaching complete kill). The MATIN rating ([4]; dose 0.4 kg/ha) was 9 (9 - Complete kill), the ZEAMX rating (Zea mays (ZEAMX); dose 0.03 kg/ha) was 2 (2 - Slight effect) and the ZEAMX rating (Zea mays (ZEAMX); dose 0.1 kg/ha) was 4 (4 - Injury). For the same compound, the ZEAMX rating (Zea mays (ZEAMX); dose 0.4 kg/ha) was 5 (5 - Definite injury), the SOLNI rating (Solanum nigrum (SOLNI) [5]; dose 0.03 kg/ha) was 7 (7 - Good herbicidal effect) and the SOLNI rating (Solanum nigrum (SOLNI) [5]; dose 0.1 kg/ha) was 8 (8 - Approaching complete kill). The SOLNI rating (Solanum nigrum (SOLNI) [5]; dose 0.4 kg/ha) was 8 (8 - Approaching complete kill), the GALAP rating (Galium aparine (GALAP) [6]; dose 0.03 kg/ha) was 5 (5 - Definite injury) and the GALAP rating (Galium aparine (GALAP) [6]; dose 0.1 kg/ha) was 7 (7 - Good herbicidal effect). The GALAP rating (Galium aparine (GALAP) [6]; dose 0.4 kg/ha) was 9 (9 - Complete kill), the AMBEL rating ([7]; dose 0.03 kg/ha) was 5 (5 - Definite injury) and the AMBEL rating ([7]; dose 0.1 kg/ha) was 6 (6 - Herbicidal effect). For the same compound, the AMBEL rating ([7]; dose 0.4 kg/ha) was 8 (8 - Approaching complete kill), the LAMPU rating (Lamium purpureum (LAMPU) [8]; dose 0.013 kg/ha) was 8 (8 - Approaching complete kill) and the LAMPU rating (Lamium purpureum (LAMPU) [8]; dose 0.025 kg/ha) was 8 (8 - Approaching complete kill). For the same compound, the LAMPU rating (Lamium purpureum (LAMPU) [8]; dose 0.1 kg/ha) was 9 (9 - Complete kill), the LAMPU rating (Lamium purpureum (LAMPU) [8]; dose 0.4 kg/ha) was 9 (9 - Complete kill) and the SOLNI rating (Solanum nigrum (SOLNI) [9]; dose 0.013 kg/ha) was 0 (0 - No effect). The SOLNI rating (Solanum nigrum (SOLNI) [9]; dose 0.025 kg/ha) was 1 (1 - Trace effect), the SOLNI rating (Solanum nigrum (SOLNI) [9]; dose 0.1 kg/ha) was 8 (8 - Approaching complete kill) and the SOLNI rating (Solanum nigrum (SOLNI) [9]; dose 0.4 kg/ha) was 9 (9 - Complete kill). For the same compound, the SETVI rating (Setaria viridis (SETVI) [10]; dose 0.03 kg/ha) was 4 (4 - Injury), the SETVI rating (Setaria viridis (SETVI) [10]; dose 0.1 kg/ha) was 8 (8 - Approaching complete kill) and the SETVI rating (Setaria viridis (SETVI) [10]; dose 0.4 kg/ha) was 8 (8 - Approaching complete kill). The GLXMA rating (Glycine max (GLXMA); dose 0.013 kg/ha) was 0 (0 - No effect), the GLXMA rating (Glycine max (GLXMA); dose 0.025 kg/ha) was 1 (1 - Trace effect) and the GLXMA rating (Glycine max (GLXMA); dose 0.4 kg/ha) was 4 (4 - Injury). The ABUTH rating ([11]; dose 0.03 kg/ha) was 8 (8 - Approaching complete kill), the ABUTH rating ([11]; dose 0.1 kg/ha) was 8 (8 - Approaching complete kill) and the ABUTH rating ([11]; dose 0.4 kg/ha) was 9 (9 - Complete kill). The SETVI rating (Setaria viridis (SETVI) [12]; dose 0.013 kg/ha) was 5 (5 - Definite injury), the SETVI rating (Setaria viridis (SETVI) [12]; dose 0.025 kg/ha) was 6 (6 - Herbicidal effect) and the SETVI rating (Setaria viridis (SETVI) [12]; dose 0.1 kg/ha) was 9 (9 - Complete kill). The SETVI rating (Setaria viridis (SETVI) [12]; dose 0.4 kg/ha) was 9 (9 - Complete kill), the ECHCG rating ([13]; dose 0.03 kg/ha) was 2 (2 - Slight effect) and the ECHCG rating ([13]; dose 0.1 kg/ha) was 5 (5 - Definite injury). For the same compound, the ECHCG rating ([13]; dose 0.4 kg/ha) was 7 (7 - Good herbicidal effect), the MATIN rating ([14]; dose 0.013 kg/ha) was 4 (4 - Injury) and the MATIN rating ([14]; dose 0.025 kg/ha) was 6 (6 - Herbicidal effect). For the same compound, the MATIN rating ([14]; dose 0.1 kg/ha) was 8 (8 - Approaching complete kill), the MATIN rating ([14]; dose 0.4 kg/ha) was 9 (9 - Complete kill) and the TRZAW rating ([15]; dose 0.03 kg/ha) was 2 (2 - Slight effect). The TRZAW rating ([15]; dose 0.1 kg/ha) was 3 (3 - Moderate effect), the TRZAW rating ([15]; dose 0.4 kg/ha) was 3 (3 - Moderate effect) and the TRZAW rating ([16]; dose 0.013 kg/ha) was 0 (0 - No effect). For the same compound, the TRZAW rating ([16]; dose 0.025 kg/ha) was 0 (0 - No effect), the TRZAW rating ([16]; dose 0.1 kg/ha) was 1 (1 - Trace effect) and the TRZAW rating ([16]; dose 0.4 kg/ha) was 3 (3 - Moderate effect). The ORYSA rating (Oryza sativum (ORYSA) [17]; dose 0.03 kg/ha) was 2 (2 - Slight effect), the ORYSA rating (Oryza sativum (ORYSA) [17]; dose 0.1 kg/ha) was 3 (3 - Moderate effect) and the ORYSA rating (Oryza sativum (ORYSA) [17]; dose 0.4 kg/ha) was 3 (3 - Moderate effect). For the same compound, the GALAP rating (Galium aparine (GALAP) [18]; dose 0.013 kg/ha) was 0 (0 - No effect), the GALAP rating (Galium aparine (GALAP) [18]; dose 0.025 kg/ha) was 0 (0 - No effect) and the GALAP rating (Galium aparine (GALAP) [18]; dose 0.1 kg/ha) was 2 (2 - Slight effect). For the same compound, the GALAP rating (Galium aparine (GALAP) [18]; dose 0.4 kg/ha) was 9 (9 - Complete kill), the STEME rating (Stellaria media (STEME); dose 0.013 kg/ha) was 0 (0 - No effect) and the STEME rating (Stellaria media (STEME); dose 0.025 kg/ha) was 0 (0 - No effect). The STEME rating (Stellaria media (STEME); dose 0.1 kg/ha) was 9 (9 - Complete kill), the STEME rating (Stellaria media (STEME); dose 0.4 kg/ha) was 9 (9 - Complete kill) and the ORYSA rating (Oryza sativum (ORYSA) [19]; dose 0.013 kg/ha) was 0 (0 - No effect). For the same compound, the ORYSA rating (Oryza sativum (ORYSA) [19]; dose 0.025 kg/ha) was 1 (1 - Trace effect), the ORYSA rating (Oryza sativum (ORYSA) [19]; dose 0.1 kg/ha) was 2 (2 - Slight effect) and the ORYSA rating (Oryza sativum (ORYSA) [19]; dose 0.4 kg/ha) was 3 (3 - Moderate effect). The HORVW rating (Hordeum vulgare (HORVW); dose 0.03 kg/ha) was 3 (3 - Moderate effect), the HORVW rating (Hordeum vulgare (HORVW); dose 0.1 kg/ha) was 3 (3 - Moderate effect) and the HORVW rating (Hordeum vulgare (HORVW); dose 0.4 kg/ha) was 3 (3 - Moderate effect). The LAMPU rating (Lamium purpureum (LAMPU) [20]; dose 0.03 kg/ha) was 8 (8 - Approaching complete kill), the LAMPU rating (Lamium purpureum (LAMPU) [20]; dose 0.1 kg/ha) was 8 (8 - Approaching complete kill) and the LAMPU rating (Lamium purpureum (LAMPU) [20]; dose 0.4 kg/ha) was 8 (8 - Approaching complete kill). The ALOMY rating ([21]; dose 0.013 kg/ha) was 1 (1 - Trace effect), the ALOMY rating ([21]; dose 0.025 kg/ha) was 1 (1 - Trace effect) and the ALOMY rating ([21]; dose 0.1 kg/ha) was 7 (7 - Good herbicidal effect). The ALOMY rating ([21]; dose 0.4 kg/ha) was 9 (9 - Complete kill), the AMBEL rating ([22]; dose 0.013 kg/ha) was 1 (1 - Trace effect) and the AMBEL rating ([22]; dose 0.025 kg/ha) was 3 (3 - Moderate effect). The AMBEL rating ([22]; dose 0.1 kg/ha) was 8 (8 - Approaching complete kill) and the AMBEL rating ([22]; dose 0.4 kg/ha) was 9 (9 - Complete kill).
